Assay results from ChEMBL document CHEMBL1201862, “PubChem BioAssay data set” (2004).
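48-hour exposure; five concentrations; linearly interpolated endpoints. GI50: concentration for 50% inhibition of growth.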 Calls of active or inactive are those of the source. Cut-off read from the data, not from the text of the source: active = GI50 up to about 1.1 µM and inactive = higher.

Columns and labels:
Experiment in all cases: NCI-60 cell line screen, 48 h
[1] = system: NCI-H460
[2] = system: OVCAR-5
[3] = system: LOX IMVI
[4] = system: 786-0
[5] = system: RPMI-8226
[6] = system: SN12C
[7] = system: A498
[8] = system: UO-31
[9] = system: UACC-257
[10] = system: HCT-116
[11] = system: COLO 205
[12] = system: SW-620
[13] = system: SF-295
[14] = system: HOP-62
[15] = system: OVCAR-4
[16] = system: HT-29
[17] = system: SK-MEL-28
[18] = system: SNB-75

Measured: GI50

CCCCC#COP(=O)(OCC)OCC
inactive: [1] > 100 µM | [2] > 100 µM | [3] > 100 µM | [4] > 100 µM | [5] > 100 µM | [6] > 100 µM | [7] > 100 µM | [8] > 100 µM | [9] > 100 µM | [10] > 100 µM | [11] > 100 µM | [12] > 100 µM | [13] > 100 µM | [14] > 100 µM | [15] > 100 µM | [16] > 100 µM

COC(=N)c1csc(C2OC(CO)C(O)C2O)n1 (stereo not given)
inactive: [1] > 100 µM | [17] > 100 µM | [2] > 100 µM | [3] > 100 µM | [4] > 100 µM | [5] > 100 µM | [6] > 100 µM | [7] > 100 µM | [8] 50.7 µM | [9] > 100 µM | [10] > 100 µM | [11] > 100 µM | [12] > 100 µM | [13] > 100 µM | [14] > 100 µM | [15] > 100 µM | [16] > 100 µM

CCCCCCCC1(c2ccc(N)cc2)CCC(=O)NC1=O (stereo not given)
inactive: [1] 26.7 µM | [17] 28.7 µM | [2] 31.6 µM | [3] 33 µM | [4] 28.4 µM | [5] 19.1 µM | [6] 30 µM | [8] 20.5 µM | [9] 32.9 µM | [11] 21.9 µM | [12] 58.2 µM | [18] 22.5 µM | [13] 30.4 µM | [14] 32.9 µM | [15] 28.1 µM

CC1=NN(C(=O)c2ccc(Cl)cc2)C(=O)/C1=C/c1ccc(O)cc1
inactive: [1] > 100 µM | [17] > 100 µM | [2] > 100 µM | [3] > 100 µM | [4] > 100 µM | [5] > 100 µM | [6] > 100 µM | [7] > 100 µM | [8] > 100 µM | [9] > 100 µM | [10] > 100 µM | [11] > 100 µM | [12] > 100 µM | [13] > 100 µM | [14] > 100 µM | [15] > 100 µM | [16] > 100 µM

COC(=O)C1=C(c2ccc(Cl)cc2)C(O)NC(NN)=N1 (stereo not given)
inactive: [1] > 100 µM | [17] > 100 µM | [2] > 100 µM | [3] > 100 µM | [4] > 100 µM | [5] > 100 µM | [6] > 100 µM | [8] > 100 µM | [9] > 100 µM | [10] > 100 µM | [12] > 100 µM | [13] > 100 µM | [14] > 100 µM | [15] > 100 µM | [16] > 100 µM
